Measurements published in patent US5130143A, “Use of a low affinity-heparin fraction in conjunction with t-PA for thrombolytic therapy” (The Research Foundation of State University of New York, priority 1988, dated 1992).

Target: T1, t-PA (Homo sapiens, UniProt P00750)
T1 construct: The t-PA purified from human melanoma (Bowes) cell culture; host or cells: Bowes human melanoma cell culture (purified t-PA)
Assay: Amidolytic plasmin assay: activation of plasminogen by t-PA (S-2251 substrate)
Type: biochemical
Settings: no fibrinogen fragments; 0.09 nM t-PA, 0.42 μM plasminogen, 25° C.
Procedure: The assay defects lysis of the amide bond of plasminogen in determining their "amidolytic plasmin activity."
The ability of unfractionated HMW-heparin to stimulate amidolytic plasmin activity of a mixture of Lys-plasminogen or Glu-plasminogen and t-PA was measured according to the protocol, previously published by the inventors herein in Biochemistry, 25, 4033 (1986) (hereinafter "the Biochemistry Paper").
To a buffered solution of 200 ul of 0.1M Tris-HCl, pH 8.1, 0.1% (V/V) Tween 80, 0.3 mM chromogenic plasmin substrate H-D-Val-Leu-Lys-pNA (S-2251, Kabi, Sweden) was added. To this mixture, HMW-heparin fractions (the Ca and Na salts, respectively) in concentrations ranging from 0 to 25 units/ml and 0.42 μM Glu- or Lys- plasminogen were added. […]
The solutions were incubated in microliter plates at 25° C. The change in absorbance (ΔA) at 405 nm was measured against blanks without t-PA in a Bio-Tek model EL-308 microplate reader.
It should be noted that plasmin activity was actually being measured in this assay and that the plasmin concentration was increasing as a function of time due to the action of the plasminogen activators on plasminogen. Thus, plots of absorbance vs. time are parabolic, whereas plots of absorbance vs. time squared are linear. Therefore, the slopes of plots of absorbance vs. time squared were used as a measure of the rate (VO) of plasmin generation. […]

T1 sequence (P00750 36-562): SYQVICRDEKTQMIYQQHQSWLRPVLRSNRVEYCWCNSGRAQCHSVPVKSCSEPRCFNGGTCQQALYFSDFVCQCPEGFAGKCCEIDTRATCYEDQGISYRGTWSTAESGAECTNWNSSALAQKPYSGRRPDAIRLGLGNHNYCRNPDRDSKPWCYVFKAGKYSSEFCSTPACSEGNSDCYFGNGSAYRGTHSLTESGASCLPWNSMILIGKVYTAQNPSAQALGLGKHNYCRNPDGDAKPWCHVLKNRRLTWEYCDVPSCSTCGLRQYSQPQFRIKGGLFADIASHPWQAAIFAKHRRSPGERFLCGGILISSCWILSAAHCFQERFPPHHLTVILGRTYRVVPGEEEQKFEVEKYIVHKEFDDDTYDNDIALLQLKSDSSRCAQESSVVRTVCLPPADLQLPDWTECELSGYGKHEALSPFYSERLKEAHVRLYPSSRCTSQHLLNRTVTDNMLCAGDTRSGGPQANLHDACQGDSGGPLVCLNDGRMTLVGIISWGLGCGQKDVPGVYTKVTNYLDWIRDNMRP

## [Cl-].[Na+] [NaCl]
  effect on amidolytic plasmin activity (plasmin generation) of t-PA-plasminogen mixture: did not cause a marked decrease
